This is an account of results in US20100210539A1, “USE OF PEPTIDE LL-37 AS A THERAPEUTIC AGENT” (priority 2007, published 2010).

For one data set, the system named is HepG2-2.2.15 cells. Particulars: peptide 10 micrograms per ml, dye uptake assay.
Data set [1] has as its system HIV-1IIIB in CEM-SS cells. The data set is described as follows: HIV-1 antiviral assay, CPE reduction (MTS). The conditions noted are these: peptide 10 micrograms per ml, 6 days post-infection.
The next data set relates to CEM-SS cells. Particulars: peptide 10 micrograms per ml, MTS.
The subject of the next data set is MRC-5 cells. The conditions noted are these: human, 6 days.
The subject of data set [2] is HCMV strain AD169 in MRC-5 cells. Briefly: HCMV plaque reduction assay. Particulars: HCMV AD169 in MRC-5 cells; peptide 10 micrograms per ml; 7-10 days.
Data set [3] is described as follows: in vitro. Particulars: human.
A short description of data set [4]: Cytotoxicity in MRC-5 cells (CellTiter 96). The conditions noted are these: human, MRC-5 cells (embryonal lung fibroblasts).
Data set [5] in a line: in vitro. Particulars: human, CEM-SS cells.
In the next data set the test system is Pseudomonas aeruginosa. Particulars: 5 micrograms per ml.
Data set [6] has as its system Methicillin Resistant Staphylococcus Aureus (MRSA). Particulars: 5 micrograms per ml.
Another data set relates to Streptococcus pneumoniae. Particulars: 5 micrograms per ml.

Consider `Nc1ccn([C@@H]2CS[C@H](CO)O2)c(=O)n1` [3TC, Lamivudine], for which the “% Cell viability” value with HepG2-2.2.15 cells was 95.8%.

With `Cc1cn([C@H]2C[C@H](N=[N+]=[N-])[C@@H](CO)O2)c(=O)[nH]c1=O` [AZT], the “% CPE reduction in HIV-1 infected CEM-SS cells” value in [1] was found to be 99%. In addition, in the data set on CEM-SS cells, the “% Cell viability” value amounted to 97%.

`Nc1nc(O)c2ncn(COC(CO)CO)c2n1` [Ganciclovir]: the “% Cell viability” value with MRC-5 cells is 100%. Besides, in [2], the “% plaque reduction” value is recorded as 100%.

In turn, `CC[C@H](C)[C@H](NC(=O)[C@H](CCCCN)NC(=O)[C@H](CCC(=O)O)NC(=O)[C@H](CCCCN)NC(=O)[C@H](CO)NC(=O)[C@H](CCCCN)NC(=O)[C@H](CCCNC(=N)N)NC(=O)[C@H](Cc1ccccc1)NC(=O)[C@H](Cc1ccccc1)NC(=O)[C@H](CC(=O)O)NC(=O)CNC(=O)[C@H](CC(C)C)NC(=O)[C@@H](N)CC(C)C)C(=O)NCC(=O)N[C@@H](CCCCN)C(=O)N[C@@H](CCC(=O)O)C(=O)N[C@@H](Cc1ccccc1)C(=O)N[C@@H](CCCCN)C(=O)N[C@@H](CCCNC(=N)N)C(=O)N[C@H](C(=O)N[C@H](C(=O)N[C@@H](CCC(N)=O)C(=O)N[C@@H](CCCNC(=N)N)C(=O)N[C@H](C(=O)N[C@@H](CCCCN)C(=O)N[C@@H](CC(=O)O)C(=O)N[C@@H](Cc1ccccc1)C(=O)N[C@@H](CC(C)C)C(=O)N[C@@H](CCCNC(=N)N)C(=O)N[C@@H](CC(N)=O)C(=O)N[C@@H](CC(C)C)C(=O)N[C@H](C(=O)N1CCC[C@H]1C(=O)N[C@@H](CCCNC(=N)N)C(=O)N[C@H](C(=O)N[C@@H](CCC(=O)O)C(=O)N[C@@H](CO)C(N)=O)[C@@H](C)O)C(C)C)[C@@H](C)CC)C(C)C)[C@@H](C)CC` [LL-37] yielded a viability at 144 h, 10 micrograms per ml in the data set “in vitro [3]” of 100%. For the same compound, in data set [4], the viability at 144 h was 100%. This compound returned a viability at 10 micrograms per ml in “in vitro [5]” of 86.4%. For the same compound, the “% inhibition” value (in the data set on Pseudomonas aeruginosa; in [6]; with Streptococcus pneumoniae) was 0.0% each time.

In the case of `CC(C)(C)NC(=O)[C@@H]1CN(Cc2cccnc2)CCN1C[C@@H](O)C[C@@H](Cc1ccccc1)C(=O)N[C@H]1c2ccccc2C[C@H]1O` [Indinavir], the “% CPE reduction in HIV-1 infected CEM-SS cells” value in [1] was found to be 100%.
